According to PMC5862592, “CDK8/19 inhibition induces premature G1/S transition and ATR-dependent cell death in prostate cancer cells” (Oncotarget, 2018):
Read-outs that look alike come from different tables or passages of the source.

Columns and labels:
Assay in all cases: biochemical
Design in all cases: KINOMEscan active site-directed competition binding assay (DiscoveRx), 456 kinases, per cent of control at 300 nM
Details in all cases: read-out: Percent of Control (%)
CDK7 = CDK7 (Homo sapiens, UniProt P50613)
Outline: (§1)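 Active site-directed competition binding (KINOMEscan) across a 456-kinase panel, compounds tested at 300 nmol/L.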

FES = FES (Homo sapiens, UniProt P07332)
Outline: as §1

ADCK3 = target: T1, ADCK3 (Homo sapiens, UniProt Q8NI60)
T1 construct: gene COQ8A
Outline: as §1

LATS1 = LATS1 (Homo sapiens, UniProt O95835)
Outline: as §1

HUNK = HUNK (Homo sapiens, UniProt P57058)
Outline: as §1

VRK2 = VRK2 (Homo sapiens, UniProt Q86Y07)
Outline: as §1

LKB1 = target: T2, LKB1 (Homo sapiens, UniProt Q15831)
T2 construct: gene STK11
Outline: as §1

PFPK5(P.falciparum) = target: T3, PFPK5(P.falciparum) (Plasmodium falciparum, UniProt P61075)
T3 construct: gene MAL13P1.279
Outline: as §1

ERK2 = target: T4, ERK2 (Homo sapiens, UniProt P28482)
T4 construct: gene MAPK1
Outline: as §1

ERBB3 = ERBB3 (Homo sapiens, UniProt P21860)
Outline: as §1

PCTK1 = target: T5, PCTK1 (Homo sapiens, UniProt Q00536)
T5 construct: gene CDK16
Outline: as §1

FLT3 = FLT3 (Homo sapiens, UniProt P36888)
Outline: as §1

EPHA6 = EPHA6 (Homo sapiens, UniProt Q9UF33)
Outline: as §1

TAOK2 = TAOK2 (Homo sapiens, UniProt Q9UL54)
Outline: as §1

CIT = CIT (Homo sapiens, UniProt O14578)
Outline: as §1

MST1R = MST1R (Homo sapiens, UniProt Q04912)
Outline: as §1

NDR1 = target: T6, NDR1 (Homo sapiens, UniProt Q15208)
T6 construct: gene STK38
Outline: as §1

EGFR(L858R) = EGFR(L858R) (Homo sapiens, UniProt P00533, L858R)
Outline: as §1

EGFR(S752-I759del) = EGFR(S752-I759del) (Homo sapiens, UniProt P00533, DEL752-759)
Outline: as §1

MYLK2 = MYLK2 (Homo sapiens, UniProt Q9H1R3)
Outline: as §1

[1] = target: T7, ABL1(E255K)-phosphorylated (Homo sapiens, UniProt P00519, E255K)
T7 construct: phosphorylated
Outline: as §1

ROCK2 = ROCK2 (Homo sapiens, UniProt O75116)
Outline: as §1

T4 sequence (P28482 whole entry): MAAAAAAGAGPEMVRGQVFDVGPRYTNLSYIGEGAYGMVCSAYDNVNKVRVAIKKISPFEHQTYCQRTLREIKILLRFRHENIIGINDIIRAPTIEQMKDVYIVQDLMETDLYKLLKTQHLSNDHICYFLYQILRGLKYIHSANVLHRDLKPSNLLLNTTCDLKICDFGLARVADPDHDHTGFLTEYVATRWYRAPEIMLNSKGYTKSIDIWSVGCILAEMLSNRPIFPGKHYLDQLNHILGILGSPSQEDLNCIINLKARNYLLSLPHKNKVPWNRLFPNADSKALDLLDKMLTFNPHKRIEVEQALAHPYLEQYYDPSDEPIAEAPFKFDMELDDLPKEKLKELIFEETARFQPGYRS
MYLK2, sequence (Q9H1R3 whole entry): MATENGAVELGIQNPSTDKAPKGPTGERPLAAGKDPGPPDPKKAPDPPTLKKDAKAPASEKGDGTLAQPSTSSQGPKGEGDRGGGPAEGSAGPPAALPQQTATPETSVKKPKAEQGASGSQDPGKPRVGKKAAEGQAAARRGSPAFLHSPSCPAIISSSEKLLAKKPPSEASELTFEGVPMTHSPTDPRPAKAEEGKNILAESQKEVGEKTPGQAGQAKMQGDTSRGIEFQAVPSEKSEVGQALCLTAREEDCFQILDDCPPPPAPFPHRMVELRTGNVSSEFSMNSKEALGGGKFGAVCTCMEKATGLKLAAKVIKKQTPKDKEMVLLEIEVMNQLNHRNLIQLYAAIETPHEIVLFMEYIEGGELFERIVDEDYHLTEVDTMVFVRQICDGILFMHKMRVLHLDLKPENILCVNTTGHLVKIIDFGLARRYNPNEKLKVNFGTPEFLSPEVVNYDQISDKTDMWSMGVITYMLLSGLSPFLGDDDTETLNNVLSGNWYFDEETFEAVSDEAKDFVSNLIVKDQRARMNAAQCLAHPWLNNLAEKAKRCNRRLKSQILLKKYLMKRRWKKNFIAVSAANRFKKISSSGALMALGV
T6 sequence (Q15208 whole entry): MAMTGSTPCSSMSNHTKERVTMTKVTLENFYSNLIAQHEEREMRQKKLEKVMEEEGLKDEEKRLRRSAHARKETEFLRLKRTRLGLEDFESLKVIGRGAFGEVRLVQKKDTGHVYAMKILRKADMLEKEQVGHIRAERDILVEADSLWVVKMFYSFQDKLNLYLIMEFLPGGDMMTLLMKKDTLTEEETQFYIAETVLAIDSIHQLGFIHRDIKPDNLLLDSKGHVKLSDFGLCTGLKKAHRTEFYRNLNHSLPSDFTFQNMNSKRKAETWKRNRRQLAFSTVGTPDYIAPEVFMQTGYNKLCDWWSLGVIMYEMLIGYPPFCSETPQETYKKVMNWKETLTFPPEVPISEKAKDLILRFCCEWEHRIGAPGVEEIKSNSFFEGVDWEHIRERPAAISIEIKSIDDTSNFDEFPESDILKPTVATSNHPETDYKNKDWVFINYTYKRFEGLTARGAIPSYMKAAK
MST1R, sequence (Q04912 whole entry): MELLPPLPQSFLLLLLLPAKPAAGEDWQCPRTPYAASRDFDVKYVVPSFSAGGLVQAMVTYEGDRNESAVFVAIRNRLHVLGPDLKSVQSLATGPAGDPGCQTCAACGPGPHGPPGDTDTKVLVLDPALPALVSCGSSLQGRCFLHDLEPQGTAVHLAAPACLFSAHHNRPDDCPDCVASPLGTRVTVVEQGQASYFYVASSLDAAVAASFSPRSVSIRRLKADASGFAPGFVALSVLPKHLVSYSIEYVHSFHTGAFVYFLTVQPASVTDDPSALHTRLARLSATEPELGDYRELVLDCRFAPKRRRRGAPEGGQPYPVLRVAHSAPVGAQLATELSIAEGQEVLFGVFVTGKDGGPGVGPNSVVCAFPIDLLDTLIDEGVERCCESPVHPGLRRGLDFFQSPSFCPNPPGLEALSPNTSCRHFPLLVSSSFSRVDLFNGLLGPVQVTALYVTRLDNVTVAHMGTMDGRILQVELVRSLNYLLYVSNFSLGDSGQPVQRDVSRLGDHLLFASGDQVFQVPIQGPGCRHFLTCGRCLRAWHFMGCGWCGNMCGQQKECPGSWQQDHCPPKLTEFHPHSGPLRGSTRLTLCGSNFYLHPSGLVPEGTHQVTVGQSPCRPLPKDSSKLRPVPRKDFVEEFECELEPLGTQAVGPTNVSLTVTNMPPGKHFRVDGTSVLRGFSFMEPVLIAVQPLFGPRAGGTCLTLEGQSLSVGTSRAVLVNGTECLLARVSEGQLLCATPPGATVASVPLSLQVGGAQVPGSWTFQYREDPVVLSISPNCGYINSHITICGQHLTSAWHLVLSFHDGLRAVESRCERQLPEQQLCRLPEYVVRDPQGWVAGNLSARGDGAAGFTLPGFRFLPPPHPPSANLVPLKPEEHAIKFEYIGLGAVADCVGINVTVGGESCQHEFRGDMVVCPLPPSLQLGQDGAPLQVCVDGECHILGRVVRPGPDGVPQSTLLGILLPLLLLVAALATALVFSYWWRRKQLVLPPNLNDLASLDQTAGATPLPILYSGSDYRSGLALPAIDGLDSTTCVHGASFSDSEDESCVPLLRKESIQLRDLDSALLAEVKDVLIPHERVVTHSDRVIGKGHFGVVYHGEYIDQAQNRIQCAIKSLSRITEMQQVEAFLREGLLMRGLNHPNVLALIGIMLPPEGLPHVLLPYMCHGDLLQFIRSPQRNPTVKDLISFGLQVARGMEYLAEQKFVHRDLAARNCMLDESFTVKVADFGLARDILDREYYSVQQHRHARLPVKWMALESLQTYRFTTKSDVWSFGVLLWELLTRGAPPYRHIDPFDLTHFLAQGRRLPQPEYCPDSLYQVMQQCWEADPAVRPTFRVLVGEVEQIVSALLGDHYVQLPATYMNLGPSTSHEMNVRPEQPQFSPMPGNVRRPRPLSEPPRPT
T7 sequence (P00519 whole entry E255K): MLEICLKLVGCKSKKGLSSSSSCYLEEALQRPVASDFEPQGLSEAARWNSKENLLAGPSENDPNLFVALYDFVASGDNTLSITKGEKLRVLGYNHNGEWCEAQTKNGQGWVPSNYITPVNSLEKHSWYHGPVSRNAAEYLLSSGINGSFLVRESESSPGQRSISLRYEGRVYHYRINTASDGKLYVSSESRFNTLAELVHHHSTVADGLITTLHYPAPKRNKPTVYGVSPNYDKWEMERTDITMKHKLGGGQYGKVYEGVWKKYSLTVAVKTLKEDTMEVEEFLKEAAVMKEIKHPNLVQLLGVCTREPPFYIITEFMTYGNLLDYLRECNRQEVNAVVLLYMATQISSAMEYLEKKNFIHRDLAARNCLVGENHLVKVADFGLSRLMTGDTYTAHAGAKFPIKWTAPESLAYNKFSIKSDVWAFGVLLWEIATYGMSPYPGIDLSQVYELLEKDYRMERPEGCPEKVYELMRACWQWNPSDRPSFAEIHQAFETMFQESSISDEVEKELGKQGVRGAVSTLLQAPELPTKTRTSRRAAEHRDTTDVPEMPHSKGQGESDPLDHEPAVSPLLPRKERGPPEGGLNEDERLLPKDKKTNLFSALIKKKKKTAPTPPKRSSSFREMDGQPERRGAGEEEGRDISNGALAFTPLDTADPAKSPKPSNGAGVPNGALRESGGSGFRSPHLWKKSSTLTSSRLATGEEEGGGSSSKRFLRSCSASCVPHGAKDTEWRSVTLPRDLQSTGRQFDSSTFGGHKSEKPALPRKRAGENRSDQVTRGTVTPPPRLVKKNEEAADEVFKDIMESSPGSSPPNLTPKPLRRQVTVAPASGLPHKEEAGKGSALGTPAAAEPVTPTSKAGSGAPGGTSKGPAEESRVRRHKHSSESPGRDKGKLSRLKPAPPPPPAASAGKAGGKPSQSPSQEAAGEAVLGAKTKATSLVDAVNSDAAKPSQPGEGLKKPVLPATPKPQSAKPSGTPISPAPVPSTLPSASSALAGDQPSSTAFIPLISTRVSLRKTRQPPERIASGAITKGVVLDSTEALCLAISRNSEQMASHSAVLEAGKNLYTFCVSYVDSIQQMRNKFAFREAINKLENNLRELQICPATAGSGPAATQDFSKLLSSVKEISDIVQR
VRK2, sequence (Q86Y07 whole entry): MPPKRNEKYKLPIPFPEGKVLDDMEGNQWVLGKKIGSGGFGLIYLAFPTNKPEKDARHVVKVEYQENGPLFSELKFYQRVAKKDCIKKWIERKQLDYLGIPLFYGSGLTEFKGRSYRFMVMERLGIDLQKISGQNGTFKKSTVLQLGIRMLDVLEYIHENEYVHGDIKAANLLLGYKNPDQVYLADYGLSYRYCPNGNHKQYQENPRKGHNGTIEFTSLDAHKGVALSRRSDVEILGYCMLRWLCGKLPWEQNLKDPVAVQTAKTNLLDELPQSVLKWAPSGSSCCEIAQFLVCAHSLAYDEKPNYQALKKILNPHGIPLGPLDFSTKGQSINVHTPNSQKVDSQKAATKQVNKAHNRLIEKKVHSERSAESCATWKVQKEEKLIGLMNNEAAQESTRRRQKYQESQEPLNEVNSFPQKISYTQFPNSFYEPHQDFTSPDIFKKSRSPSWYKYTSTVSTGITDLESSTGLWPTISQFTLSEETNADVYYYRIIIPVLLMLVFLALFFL
T5 sequence (Q00536 whole entry): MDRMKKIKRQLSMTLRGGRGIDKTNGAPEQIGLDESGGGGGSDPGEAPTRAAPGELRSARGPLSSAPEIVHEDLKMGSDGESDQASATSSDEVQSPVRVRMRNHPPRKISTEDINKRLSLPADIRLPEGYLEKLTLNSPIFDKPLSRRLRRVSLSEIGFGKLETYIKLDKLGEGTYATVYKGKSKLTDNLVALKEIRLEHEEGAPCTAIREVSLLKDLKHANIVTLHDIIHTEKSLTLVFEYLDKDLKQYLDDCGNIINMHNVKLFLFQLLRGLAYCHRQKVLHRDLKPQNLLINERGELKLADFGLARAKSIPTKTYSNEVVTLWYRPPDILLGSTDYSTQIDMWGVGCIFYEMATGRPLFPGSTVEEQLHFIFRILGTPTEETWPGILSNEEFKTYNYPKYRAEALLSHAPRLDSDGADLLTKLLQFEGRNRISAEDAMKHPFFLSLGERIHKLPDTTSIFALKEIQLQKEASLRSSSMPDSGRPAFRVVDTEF

O=C(/C=C/c1cnccc1-c1ccc(F)cc1)Nc1ccc(CCc2nnco2)cc1 [T-418, (2E)-3-(4-(4-fluorophenyl)pyridin-3-yl)-N-(4-(2-(1,3,4-oxadiazol-2-yl)ethyl)phenyl)acrylamide]
remaining binding at 0.3 µM (CDK7; sheet T-418): 100% | remaining binding at 0.3 µM (FES; sheet T-418): 83% | remaining binding at 0.3 µM (ADCK3; sheet T-418): 100% | remaining binding at 0.3 µM (LATS1; sheet T-418): 60% | remaining binding at 0.3 µM (HUNK; sheet T-418): 100% | remaining binding at 0.3 µM (VRK2; sheet T-418): 100% | remaining binding at 0.3 µM (LKB1; sheet T-418): 53% | remaining binding at 0.3 µM (PFPK5(P.falciparum); sheet T-418): 76% | remaining binding at 0.3 µM (ERK2; sheet T-418): 79% | remaining binding at 0.3 µM (ERBB3; sheet T-418): 76% | remaining binding at 0.3 µM (PCTK1; sheet T-418): 98% | remaining binding at 0.3 µM (FLT3; sheet T-418): 66% | remaining binding at 0.3 µM (EPHA6; sheet T-418): 100% | remaining binding at 0.3 µM (TAOK2; sheet T-418): 100% | remaining binding at 0.3 µM (CIT; sheet T-418): 95% | remaining binding at 0.3 µM (MST1R; sheet T-418): 100% | remaining binding at 0.3 µM (NDR1; sheet T-418): 46% | remaining binding at 0.3 µM (EGFR(L858R); sheet T-418): 66% | remaining binding at 0.3 µM (EGFR(S752-I759del); sheet T-418): 98% | remaining binding at 0.3 µM (MYLK2; sheet T-418): 62% | remaining binding at 0.3 µM ([1]; sheet T-418): 83% | remaining binding at 0.3 µM (ROCK2; sheet T-418): 92%

Cc1ncccc1Oc1sc(C(N)=O)c2c1-c1c(cnn1C)CC2 [T-474, 1-methyl-8-((2-methylpyridin-3-yl)oxy)-4,5-dihydro-1H-thieno[3,4-g]indazole-6-carboxamide]
remaining binding at 0.3 µM (CDK7): 100% | remaining binding at 0.3 µM (FES): 100% | remaining binding at 0.3 µM (ADCK3): 90% | remaining binding at 0.3 µM (LATS1): 67% | remaining binding at 0.3 µM (HUNK): 100% | remaining binding at 0.3 µM (VRK2): 100% | remaining binding at 0.3 µM (LKB1): 67% | remaining binding at 0.3 µM (PFPK5(P.falciparum)): 95% | remaining binding at 0.3 µM (ERK2): 85% | remaining binding at 0.3 µM (ERBB3): 78% | remaining binding at 0.3 µM (PCTK1): 100% | remaining binding at 0.3 µM (FLT3): 100% | remaining binding at 0.3 µM (EPHA6): 100% | remaining binding at 0.3 µM (TAOK2): 100% | remaining binding at 0.3 µM (CIT): 93% | remaining binding at 0.3 µM (MST1R): 95% | remaining binding at 0.3 µM (NDR1): 39% | remaining binding at 0.3 µM (EGFR(L858R)): 71% | remaining binding at 0.3 µM (EGFR(S752-I759del)): 100% | remaining binding at 0.3 µM (MYLK2): 92% | remaining binding at 0.3 µM [1]: 83% | remaining binding at 0.3 µM (ROCK2): 81%
